No end group written: not given here.
Experiments:
Assay type in all cases: cell-based
[1] = test system: Botrytis cinerea T4
[2] = test system: Fusarium graminearum PH-1; settings: for F. graminearum PH-1 MIC Day1: MIC Day 1, 96-well plate, resazurin cell viability; for MIC, in-vitro antifungal activity against F. graminearum: F. graminearum PH-1, 48 hours
[3] = test system: Zymoseptoria tritici IPO323

Substance	B. cinerea T4 MIC Day1 [1]	F. graminearum PH-1 MIC Day1 [2]	Z. tritici IPO323 MIC Day 1 [3]	Z. tritici IPO323 MIC Day 7 [3]	Z. tritici IPO323 MIC Day 14 [3]	MIC, in-vitro antifungal activity against B. cinerea ([1]; 48 hours)	MIC, in-vitro antifungal activity against F. graminearum [2]
PD123.1.1: Striga asiatica wild-type defensin SEQ ID NO: 719 with N-terminal alanine, expressed in Pichia pastoris (RKCESKSQQFKGLCFIKANCAAVCRTEGFHSGHCRGFRRRCYCTKHC; N-terminal alanine added; listed as Striga asiatica)	6 µM	6 µM	3 µM	5 µM	10 µM		
PD108.1.1: Fragaria x anannasa wild-type defensin SEQ ID NO: 653 with N-terminal alanine, expressed in Pichia pastoris (KTCESPSAKFEGPCIMGSNCALTCQKEGHDGGFCRDFWLPKCFCTKPC; N-terminal alanine added; Fragaria X ananassa)	>12 µM	>12 µM	>12 µM	>12 µM	>12 µM		
PD93.1.1: Fragaria vesca wild-type defensin SEQ ID NO: 588 with N-terminal alanine, expressed in Pichia pastoris (KICEVPSKTFKGLCVKDRNCVVRCHSEGYGNGKCSHVRRQCMCLKICD; N-terminal alanine; listed as Fragaria vesca)	6 µM	>12 µM	2 µM	5 µM	8 µM		
PD106.1.1: Eucalyptus grandis wild-type defensin SEQ ID NO: 645 with N-terminal alanine, expressed in Pichia pastoris (ANCAKPSKFYRGPCFNSISVKPCTQRCSQENWPIGVCTKDLRCECQRPC; cysteine pairing not given here; also: N-terminal alanine added, unclear whether it is the first A of the chain; listed as Eucalyptus grandis)	1 µM	0.75 µM	0.375 µM	1.5 µM	2.5 µM	1 µM	0.75 µM
PD126.1.1: wild-type defensin-like protein SEQ ID NO: 730 with N-terminal alanine, expressed in Pichia pastoris (KLCERRSKTWTGWCAKTSHCNKQCKDWERVEHGACHGEFLEKPVSAISNAHCKISF; N-terminal alanine added; listed as Prunus armeniaca)	>12 µM	>12 µM	>12 µM	>12 µM	>12 µM		
PD86.1.1: Erythranthe guttata wild-type defensin SEQ ID NO: 555 with N-terminal alanine, expressed in Pichia pastoris (SLCETPSRYFNGICFSRRNCGAICEKEGFSSGRCKAFKCVCGKDC; N-terminal alanine added; listed as Erythranthe guttata)	12 µM	6 µM	7 µM	12 µM	>12 µM		
PD128.1.1: wild-type defensin-like protein SEQ ID NO: 734 with N-terminal alanine, expressed in Pichia pastoris (RVCLRRSKTWTGFCGNTRGFDSQCKRWECALHGACHC; N-terminal alanine added; listed as Lepidium sativum)	3 µM	>12 µM	3 µM	7 µM	8 µM		
PD85.1.1: Panax ginseng wild-type defensin SEQ ID NO: 551 with N-terminal alanine, expressed in Pichia pastoris (KLCEKASLTWSGKCGNTQNCDKQCQNWESAKHGACHKRPTWKCFCYSDC; N-terminal alanine added; Panax ginseng)	>12 µM	>12 µM	0.625 µM	1.75 µM	10 µM		
PD103.1.1: Eucalyptus grandis wild-type defensin SEQ ID NO: 633 with N-terminal alanine, expressed in Pichia pastoris (ATCRKPSMYFSGACFSRTNCQKACNREDWPNGKCLVGFKCFCQRPC; cysteine pairing not given here; also: N-terminal alanine added, unclear whether it is the first A of the chain; listed as Eucalyptus grandis)	1.75 µM	2.5 µM	1.25 µM	1.25 µM	3 µM		
PD88.1.1: Fraxinus excelsior wild-type defensin SEQ ID NO: 565 with N-terminal alanine, expressed in Pichia pastoris (KHCAKLSKGWHGFCAPHKCSRYCIHHEGAYDGACLKHHHSKHIGCYCYYRHC; N-terminal alanine; Fraxinus excelsior)	0.75 µM	>12 µM	1.5 µM	3 µM	4 µM		
PD92.1.1: Trifolium pratense wild-type defensin SEQ ID NO: 583 with N-terminal alanine, expressed in Pichia pastoris (RKCESKRRWIYGNCLSDEKCASDCLVKGFLFGKCRGYDNRCYCKKPRC; N-terminal alanine; Trifolium pratense)	3 µM	3 µM	0.75 µM	1.75 µM	2.5 µM		
PD113.1.1: Gossypium hirsutum wild-type defensin SEQ ID NO: 674 with N-terminal alanine, expressed in Pichia pastoris (GPTIVGGRKCKSPSKKFNGMCMNHVNCATVCQTESHEDGKCEGFYRRCICIKPCF; N-terminal alanine added; listed as Gossypium hirsutum)	6 µM	6 µM	4 µM	12 µM	>12 µM		
PD95.1.1: Mimulus guttatus wild-type defensin SEQ ID NO: 598 with N-terminal alanine, expressed in Pichia pastoris (RHCESPSHRFKGICVRKSNCAAICQTEGFSSGKCRGFRSRCVCIKHC; N-terminal alanine; listed as Mimulus guttatus)	0.75 µM	0.75 µM					0.75 µM
PD114.1.1: Lupinus albus wild-type defensin SEQ ID NO: 679 with N-terminal alanine, expressed in Pichia pastoris (RTCKSKSQRYKGSCYSDNNCAIICEGEGFTGGKCHGFFCKCWCKRPCL; N-terminal alanine added; listed as Lupinus albus)	>12 µM	>12 µM					
PD102.1.1: Cajanus cajan wild-type defensin SEQ ID NO: 628 with N-terminal alanine, expressed in Pichia pastoris (AVCSKPSTYFFGPCVRRSTCRRACSHENYPDGKCSRFLGKCICYKPCTT; cysteine pairing not given here; also: N-terminal alanine added, unclear whether it is the first A of the chain)	1.25 µM	1.5 µM	1 µM	1.5 µM	2.5 µM		
PD124.1.1: Rubus argutus wild-type defensin SEQ ID NO: 723 with N-terminal alanine, expressed in Pichia pastoris (RICEVPSKTFIGLCFKDTNCIVRCRSEGYGYGKCSHFRRRCRCFKPCP; N-terminal alanine added; listed as Rubus argutus)	0.75 µM	2 µM	0.75 µM	3.25 µM	4 µM		
PD83.1.1: Eucalyptus grandis wild-type defensin SEQ ID NO: 542 with N-terminal alanine, expressed in Pichia pastoris (RMCESQSHKFHGLCMSDRTCVVVCKEEDFDDGKCRGFRHRCFCRKPC; N-terminal alanine added; listed as Eucalyptus grandis)	>12 µM	>12 µM					
PD120.1.1: Setaria italica wild-type defensin SEQ ID NO: 706 with N-terminal alanine, expressed in Pichia pastoris (DRCETHSRTYKGRCNNHNCWSICITEGNTGGFCKGTLLLKCMCTSEC; N-terminal alanine added; listed as Setaria italica)	>12 µM	12 µM					
PD99.1.1: Theobroma cacao wild-type defensin SEQ ID NO: 616 with N-terminal alanine, expressed in Pichia pastoris (KLCQKRSKTWTGPCIKTKNCDHQCRKWEKAQHGACHWQWPGFACFCYVNC; N-terminal alanine; Theobroma cacao)	0.75 µM	0.75 µM					0.75 µM
